The record followed here is US11744273B2, “Sweetness enhancing volatile compositions and methods of increasing perceived sweetness of a comestible” (University of Florida Research Foundation, Inc., priority 2016, dated 2023).

Common to all, as to assay type: in vivo, human
Assay [1] has as its system sweetness. The assay is described as follows: Orange juice; partial least squares regression of volatiles against sweetness independent of total sugar (Table 9). On the procedure: Volatile content of orange juice was assessed and analyzed similar to as described above for tomato, strawberry, and blueberry, described above. The process for obtaining volatile samples from orange juice was slightly different than for tomatoes, strawberries and blueberries. […] Briefly, instead of collecting volatiles at room temperature from a fruit mash in headspace of a closed area, the volatiles were elicited by heating the juice to collect volatiles.

Assay [2] relates to sweetness. The assay can be described thus: Blueberry sensory panels; multiple regression of volatiles against sweetness independent of fructose, glucose and/or sucrose (Table 8). As to conditions: for t Ratio (Fructose): contribution to sweetness independent of fructose; for t Ratio (Glucose): contribution to sweetness independent of glucose; for t Ratio (Sucrose): contribution to sweetness independent of sucrose. From the text:
Panelists were trained with the scaling methods and were encouraged to return for the remainder of the study. […] Panelists were also asked to rate the intensity of taste and flavor sensations of a hypothetical ideal blueberry on this scale. Each panelist received two to four berries of five to six genotypes in a single panel in a Williams design, which was generated by Compusense 5.6 (Compusense Inc., Guelph, Ontario, Canada). They were asked to eat the blueberries of each genotype at once, and to take a bite of cracker and sip of water in between samples. Ratings were recorded using Compusense software.
Soluble solids content (SSC), titratable acidity (TA), and volatiles were quantified as described above for tomato and strawberries. The volatiles were collected for two hours via dynamic headspace with HaySep Q 80-100 porous polymer adsorbent (Valco Instruments Company Inc., Houston, Tex.) and eluted with methylene chloride and nonyl acetate as an elution standard. […] Integrated peak area of each signal was normalized for elution, fitted to relative pure chemical response, corrected for sample mass, and expressed as nanograms per gram fresh weight per hour (ng gFW-1 h-1). Response fitting was calculated using the response factor of pure chemical standards (Sigma-Aldrich, St. Louis, Mo.) run on the same instrument.
Pair-wise correlations and significance between sensory measurements and primary bio-chemical components were calculated, with panelist as a random effect. Least Square Means (LSMeans) of the sensory data for each sample were obtained to account of the random effect of panelist. […] The response variables (Y) considered corresponded to LSMeans of overall liking, sweetness, sourness, and blueberry flavor intensity. Glucose, fructose, sucrose, TA, pH, and 52 volatile compounds were considered as explanatory variables (X). The inclusion of texture liking was evaluated independently given that no explanatory physical measure was made for sample texture. […] The model was created without texture for analysis.

Assay [3] has as its system perceived sweetness. The assay is described as follows: Tomato taste panel; initial multiple regression of volatiles against perceived sweetness (Table 3). As to conditions: for t: tomato volatiles, multiple regression, contribution to sweetness independent of the measures of sugar; for association with sweetness: univariate models. On the procedure: (§1) Fully ripe fruit were harvested, and used for taste panels. A random subset of fruit was used for biochemical analysis. Three biological replicates, each consisting of 2-20 fruit (depending on fruit size), were assayed for each variety. […] Panelists were between the ages of 18 and 78 with a median age of 22. […] An average of 85 (range of 66-95) of these panelists evaluated between 4-6 varieties in a session. All panelists went through a training session to familiarize them with the scaling and procedures. Tomatoes were sliced into wedges (or in halves for grape/cherry types) and each panelist was given two pieces for evaluation. Panelists took a bite of each sample, chewed and swallowed it, and rated overall liking and liking for texture. They then rated the perceived intensities of sweetness, sourness, saltiness, umami sensation, bitterness and overall tomato flavor. They were free to take as many bites as necessary to complete the assessments. They were instructed to take a bite of an unsalted cracker and a sip of water between samples. Samples were presented to the panelists in a randomized order. Hedonic ratings used the hedonic gLMS. This scale assesses the liking for tomatoes in the context of all pleasure/displeasure experiences: 0=neutral, −100=strongest disliking of any kind experienced, and +100=strongest liking of any kind experienced. Sensory intensity ratings used the gLMS (7,8,19). This scale assesses taste and flavor sensations in the context of all sensory experience (7): 0=no sensation, 100=strongest sensation of any kind experienced. Both scales were devised to provide valid comparisons across subjects.
(§2) The 68 chemical compounds measured in this experiment were initially divided into six groups based upon biochemical properties: sugars, branched chain amino acids, lipids, carotenoids, phenolics, and acids. A small number of compounds for which biosynthetic pathways are not established were assigned to one of the six classes based upon their correlations with other classified compounds. All pairwise correlations among the set of 68 compounds were calculated. Correlation coefficients were sorted using Modulated Modularity Clustering (MMC) (9) as a visual aid for identifying compounds that are closely related in this sample. Biochemical groups were examined for compounds within the group that were highly correlated and compounds that were upstream in the relevant metabolic pathways were preferentially selected.
(§3) All analyses were performed in SAS v 9.2.
In conducting the multiple regression analysis on the tomato data set, the independent variables were the sugar content (glucose+fructose), and the flavor (indicated by the retronasal perception of volatiles), while the dependent variable was the perceived sweetness.

The subject of assay [4] is perceived sweetness. The assay can be described thus: Tomato taste panel; revised partial least squares regression against sweetness independent of fructose or glucose (Table 4). As to conditions: for FRUCTOSE t RATIO: sweetness independent of fructose; for GLUCOSE t RATIO: sweetness independent of glucose. The protocol: as §1
Biochemical and psychophysical data sets from fruit and fruit taste panels are mathematically probed for relationships using standard least squares and partial least squares regression modeling techniques (SAS JMP Pro 12.0.1 and R version 3.2.4 statistical software packages). The exact regression type is dependent on the structure of the data, i.e. depending on the size and distributions of the overall datasets.

In assay [5] the test system is flavor intensity. The assay is described as follows: Tomato taste panel; association of compounds with tomato flavor intensity. The following applies: univariate models. On the procedure:
as §1, §2, §3
Due to the large number of chemicals potentially influencing liking, a multivariate analysis of the data was performed. The attributes were initially partitioned into six groups based upon chemical properties and biosynthetic pathways: sugars, branched chain amino acids, fatty acids, carotenoids, phenolics, and acids. […] Groups of structurally related chemicals with known metabolic links were examined for compounds within each module that were highly colinear and compounds that were upstream in relevant metabolic pathways were preferentially selected.

In the case of `C=C(C)[C@@H]1CC=C(C)[C@@H](O)C1` (relative stereo) [carveol, trans], the “Total Sugar t Ratio” value in assay [1] was 2.542. As for `C=CC1(C)CCC(C(C)(C)O)O1` (stereo not drawn) [(Z)-linalool oxide (furanoid)], in assay [2], the “t Ratio (Fructose)” value was found to be 1.154, the “t Ratio (Glucose)” value turned out to be 1.356 and the “t Ratio (Sucrose)” value was determined as 1.079.

Consider `C=C1CC[C@H]2O[C@]2(C)CC[C@@H]2[C@@H]1CC2(C)C` [(—)-Caryophyllene oxide], for which, in assay [2], the “t Ratio (Fructose)” value was 1.845, the “t Ratio (Glucose)” value turned out to be 1.608 and the “t Ratio (Sucrose)” value is given as “.982”. As for `C=C(C)[C@H]1CC=C(C)CC1` [D-Limonene], in assay [2], the “t Ratio (Fructose)” value was 1.176, the “t Ratio (Glucose)” value was “.954” and the “t Ratio (Sucrose)” value is “.609”.

For the compound `C/C=C(C)/C=C/C=C(C)C` [E,E-alloocimene], the “Total Sugar t Ratio” value in assay [1] amounted to 3.337. For the compound `C=C(C)[C@H]1C=C[C@](C)(O)CC1` [E-p-mentha-2,8-dien-1-ol], in assay [1], the “Total Sugar t Ratio” value is given as 1.258.

Regarding `C=C(C)[C@@H]1CCC2=CCC[C@H](C)[C@@]2(C)C1` [Eremophilene], the “Total Sugar t Ratio” value in assay [1] is recorded as 1.738. As for `C[Si](C)(C)CCOC(=O)CC(=O)OCC[Si](C)(C)C` [Malonic acid, bis(2-trimethylsilylethyl ester], in assay [1], the “Total Sugar t Ratio” value amounted to 3.148. For `C[Si](C)(O)O` [Silanediol, dimethyl-], in assay [1], the “Total Sugar t Ratio” value worked out at 1.781. As for `CC1=C(C=O)C(C)(C)CCC1` [beta-cyclocitral], the t in assay [3] is reported as 1.186. In assay [4], the “FRUCTOSE t RATIO” value is listed as 1.905 and the “GLUCOSE t RATIO” value was determined as 1.688. `CC1=CC[C@H]2[C@H]3[C@@H]1[C@]2(C)CC[C@H]3C(C)C` [copaene]: the “Total Sugar t Ratio” value in assay [1] worked out at 2.06.

In the case of `O=C(CO)[C@@H](O)[C@H](O)[C@H](O)CO` [fructose], the association with sweetness result in assay [3] (tomato) is reported as “showed evidence for association with sweetness”. For the same compound, the “association with flavor intensity” value in assay [5] is recorded as “associated with flavor intensity”. As to `CC(C)=CCC/C(C)=C/C=O` [geranial], in assay [3] (tomato), the “association with sweetness after accounting for fructose” value is on record as “significant after accounting for fructose” and the association with sweetness result is listed as “showed evidence for association with sweetness”. Besides, in assay [5], the “association with flavor intensity” value was “associated with flavor intensity”. `N[C@@H](CCC(=O)O)C(=O)O` [glutamatic acid]: in assay [4], the “FRUCTOSE t RATIO” value is −1.746 and the “GLUCOSE t RATIO” value is on record as −2.953.

Consider `CSCCC=O` [methional], for which the association with sweetness result in assay [3] (tomato) is “showed evidence for association with sweetness”. The “association with flavor intensity” value in assay [5] is recorded as “associated with flavor intensity”. As to `C=C(C)[C@@H]1CCC2=CCC[C@@H](C)[C@]2(C)C1` [valencene], the “Total Sugar t Ratio” value in assay [1] came to 2.206. Consider `CC(=O)/C=C/C1C(C)=CCCC1(C)C` (stereo not drawn) [α-ionone], for which, in assay [1], the “Total Sugar t Ratio” value came to 2.042. `CC1=CCCC2(C)CCC3C(C)(C)CC132` (stereo not drawn) [α-panasinsen]: in assay [1], the “Total Sugar t Ratio” value is reported as 2.909. The same measure, in the same setting: as for `C=C(C)[C@@H]1CC[C@@]2(C)CCC=C(C)[C@@H]2C1` [α-selinene], the figure is 2.428.

For the compound `CC1=CC[C@H]2C(C)=CC[C@@H](C(C)C)[C@@H]2C1` [β-cadinene], the “Total Sugar t Ratio” value in assay [1] is on record as 2.69.

On to `C/C=C/C(=O)C1=C(C)C=CCC1(C)C` [β-damascenone], for which the t in assay [3] is 1.012. Further, in assay [4], the “FRUCTOSE t RATIO” value is 0.138 and the “GLUCOSE t RATIO” value stood at 0.678. Further, in assay [5], the “association with flavor intensity” value is listed as “not associated with tomato flavor intensity”. As for `CC(=O)/C=C/C1=C(C)CCCC1(C)C` [β-ionone], the t in assay [3] stood at 1.135. In assay [4], the “FRUCTOSE t RATIO” value was 2.12 and the “GLUCOSE t RATIO” value is 1.748. Moreover, the “Total Sugar t Ratio” value in assay [1] is recorded as 1.28. Regarding `C=C1CCCC2(C)CCC(=C(C)C)CC12` (stereo not drawn) [γ-Selinene], in assay [1], the “Total Sugar t Ratio” value was 4.272. With `C=C(C)C1=C[C@]2(C)C(=CC1)CCC[C@H]2C` [γ-vetivenene], the “Total Sugar t Ratio” value in assay [1] is on record as 2.469. Still for that read-out and setting: for b-caryophyllene/aromadendrene the value was 1.565. Still for that read-out and setting: as for neryl propanoate/Geranyl isobutanoate, the figure is 2.298.
